# Test results as given in ChEMBL document CHEMBL2407052, “7-Substituted-sulfocoumarins are isoform-selective, potent carbonic anhydrase II inhibitors” (Bioorg Med Chem, 2013).
# Active and inactive are the calls of the source. The calls are words filed in the database; no cut-off is given here.
# Legend:
# Carbonic anhydrase 9 [1] = target: T1, Carbonic anhydrase 9 (Homo sapiens, UniProt Q16790); assay: Inhibition of human transmembrane carbonic anhydrase 9 up to 50 uM after 6 hrs by stopped flow CO2 hydrase assay
# Carbonic anhydrase 9 [2] = target: T1, Carbonic anhydrase 9; assay: Inhibition of human transmembrane carbonic anhydrase 9 after 6 hrs by stopped flow CO2 hydrase assay
# Carbonic anhydrase 12 = Carbonic anhydrase 12 (Homo sapiens, UniProt O43570); assay: Inhibition of human transmembrane carbonic anhydrase 12 after 6 hrs by stopped flow CO2 hydrase assay
# Carbonic anhydrase 12, sequence (O43570 whole entry): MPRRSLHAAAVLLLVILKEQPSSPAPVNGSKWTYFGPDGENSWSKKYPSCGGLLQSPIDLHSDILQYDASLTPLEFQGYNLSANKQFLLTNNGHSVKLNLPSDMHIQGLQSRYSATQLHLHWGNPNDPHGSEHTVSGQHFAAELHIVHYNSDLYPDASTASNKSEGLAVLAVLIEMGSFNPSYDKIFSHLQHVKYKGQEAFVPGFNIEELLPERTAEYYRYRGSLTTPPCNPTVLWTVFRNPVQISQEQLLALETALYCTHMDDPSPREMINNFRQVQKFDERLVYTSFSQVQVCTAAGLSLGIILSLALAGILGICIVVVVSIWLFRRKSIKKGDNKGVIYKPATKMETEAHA
# Carbonic anhydrase 1 [3] = target: T2, Carbonic anhydrase 1 (Homo sapiens, UniProt P00915); assay: Inhibition of human cytosolic carbonic anhydrase 1 up to 50 uM after 6 hrs by stopped flow CO2 hydrase assay
# Target sequence in this assay (P00915 2-261 limits assumed): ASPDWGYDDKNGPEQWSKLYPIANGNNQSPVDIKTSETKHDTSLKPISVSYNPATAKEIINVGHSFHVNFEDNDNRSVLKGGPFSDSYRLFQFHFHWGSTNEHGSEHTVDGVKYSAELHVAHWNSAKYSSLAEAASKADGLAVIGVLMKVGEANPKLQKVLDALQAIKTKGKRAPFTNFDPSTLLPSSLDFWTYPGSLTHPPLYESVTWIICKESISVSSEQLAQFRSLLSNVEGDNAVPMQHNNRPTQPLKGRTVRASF
# Carbonic anhydrase 1 [4] = target: T2, Carbonic anhydrase 1; assay: Inhibition of human cytosolic carbonic anhydrase 1 after 6 hrs by stopped flow CO2 hydrase assay
# Target sequence in this assay (P00915 whole entry): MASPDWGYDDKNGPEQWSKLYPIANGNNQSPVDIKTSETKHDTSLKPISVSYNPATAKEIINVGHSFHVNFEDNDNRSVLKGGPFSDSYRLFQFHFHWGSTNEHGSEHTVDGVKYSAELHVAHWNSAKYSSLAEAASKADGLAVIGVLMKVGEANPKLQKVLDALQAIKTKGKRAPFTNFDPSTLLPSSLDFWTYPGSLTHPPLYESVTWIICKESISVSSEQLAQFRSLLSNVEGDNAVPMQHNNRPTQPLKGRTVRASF
Structure (SMILES),inhibition (Carbonic anhydrase 9 [1]),Ki (Carbonic anhydrase 9 [2]),Ki (Carbonic anhydrase 12),inhibition (Carbonic anhydrase 1 [3]),Ki (Carbonic anhydrase 1 [4])
O=C(Cc1ccccc1Br)Oc1ccc2c(c1)OS(=O)(=O)C=C2,inactive,> 10 µM,> 10 µM,inactive,> 10 µM
CC(=O)Oc1ccc2c(c1)OS(=O)(=O)C=C2,inactive,> 10 µM,> 10 µM,inactive,> 10 µM
O=C(Cc1ccc(Cl)cc1)Oc1ccc2c(c1)OS(=O)(=O)C=C2,inactive,> 10 µM,> 10 µM,inactive,> 10 µM
COc1ccc2c(c1)OS(=O)(=O)CC2,inactive,> 10 µM,> 10 µM,inactive,> 10 µM
COc1ccc2c(c1)OS(=O)(=O)C=C2,inactive,> 10 µM,> 10 µM,inactive,> 10 µM
O=S1(=O)CC(O)c2ccc(OCc3ccccc3)cc2O1 (racemic),inactive,> 10 µM,> 10 µM,inactive,> 10 µM
O=S1(=O)CC(O)c2ccc(O)cc2O1 (stereo not given),inactive,> 10 µM,> 10 µM,inactive,> 10 µM
CS(=O)(=O)Oc1ccc2c(c1)OS(=O)(=O)C=C2,inactive,> 10 µM,> 10 µM,inactive,> 10 µM
O=S1(=O)C=Cc2ccc(O)cc2O1,inactive,> 10 µM,> 10 µM,inactive,> 10 µM
O=S1(=O)CCc2ccc(OCc3ccccc3)cc2O1,inactive,> 10 µM,> 10 µM,inactive,> 10 µM
CS(=O)(=O)Oc1ccc2c(c1)OS(=O)(=O)CC2,inactive,> 10 µM,> 10 µM,inactive,> 10 µM

# Second part, the molecule after the results:
inhibition (Carbonic anhydrase 9 [1]),Ki (Carbonic anhydrase 9 [2]),Ki (Carbonic anhydrase 12),inhibition (Carbonic anhydrase 1 [3]),Ki (Carbonic anhydrase 1 [4]),Structure (SMILES)
inactive,> 10 µM,> 10 µM,inactive,> 10 µM,O=C(Cc1ccc(Cl)cc1)Oc1ccc2c(c1)OS(=O)(=O)CC2
inactive,> 10 µM,> 10 µM,inactive,> 10 µM,O=S1(=O)C=Cc2ccc(OCc3ccccc3)cc2O1
inactive,> 10 µM,> 10 µM,inactive,> 10 µM,O=C(Cc1ccccc1Br)Oc1ccc2c(c1)OS(=O)(=O)CC2
inactive,> 10 µM,> 10 µM,inactive,> 10 µM,CC(=O)Oc1ccc2c(c1)OS(=O)(=O)CC2
inactive,> 10 µM,> 10 µM,inactive,> 10 µM,O=S1(=O)CCc2ccc(O)cc2O1
